According to US20100322882A1, “SOLUBILIZING AGENTS FOR ACTIVE OR FUNCTIONAL ORGANIC COMPOUNDS” (ISP INVESTMENTS INC., priority 2006, published 2010):

Key:
[1] = Solubility of solid organic sunscreens in solubilizers (25° C.); format: physicochemical; conditions: for Solubility of MBC in the solvent: solute 4-Methylbenzylidene camphor (MBC); for Solubility of E-517 (Avobenzone) in the solvent: solute Avobenzone (E-517); for Solubility of BEMT in the solvent: solute Bis-ethylhexyloxyphenol methoxyphenyl triazine (BEMT); for Solubility of EHT in the solvent: solute Ethylhexyl triazone (EHT); for Solubility of E-567 (Oxybenzone) in the solvent: solute Oxybenzone (E-567)
Protocol: Upon cooling to 25° C., a few seed crystals (<10 mg) of the sunscreen were added to hasten equilibration. The solutions were stored in the dark in a constant temperature chamber at 25° C. Each was sampled weekly, and the ca. 0.1 g sample was filtered through a 0.45μ syringe filter and analyzed by GLC or HPLC, calibrated using standard solutions, until the value for wt. % of solute was constant.

[2] = UV absorption spectra of sunscreens in selected solvents; format: physicochemical; design: λmax of E-517 / λmax of E-567 / λmax of BEMT / λmax of EHT: unit not given here; conditions: for ε of BEMT at λmax / λmax of BEMT: 10 mg/L BEMT in the solvent; for ε of E-517 at λmax / λmax of E-517: 10 mg/L E-517 in the solvent; for ε of E-567 at λmax / λmax of E-567: 10 mg/L E-567 in the solvent; for ε of EHT at λmax / λmax of EHT: 10 mg/L EHT in the solvent; for ε of MBC at λmax / λmax of MBC: 10 mg/L MBC in the solvent
Protocol: Solutions containing 10 mg/L of sunscreen in selected solvents were prepared, and their UV spectra were measured using a Cary 1E UV-Visible spectrophotometer. […] They are also higher in 2-phenylethyl cyclohexanoate for Escalol® 517 and Escalol® 567.

[3] = second (shorter wavelength) band

Solubility of MBC in the solvent [1]	Solubility of E-517 (Avobenzone) in the solvent [1]	Solubility of BEMT in the solvent [1]	Solubility of EHT in the solvent [1]	Solubility of E-567 (Oxybenzone) in the solvent [1]	ε of BEMT at λmax ([2]; first (longer wavelength) band)	λmax of BEMT ([2]; first (longer wavelength) band)	ε of BEMT at λmax [2, 3]	λmax of BEMT [2, 3]	ε of E-517 at λmax ([2]; first (longer wavelength) band)	λmax of E-517 ([2]; first (longer wavelength) band)	ε of E-567 at λmax ([2]; first (longer wavelength) band)	λmax of E-567 ([2]; first (longer wavelength) band)	ε of E-567 at λmax [2, 3]	λmax of E-567 [2, 3]	ε of EHT at λmax [2, 3]	λmax of EHT [2, 3]	ε of MBC at λmax [2, 3]	λmax of MBC [2, 3]	Compound
44 wt. %	26 wt. %	26 wt. %	14 wt. %	44 wt. %	–	–	–	–	–	–	–	–	–	–	–	–	–	–	CC(=O)OCCc1ccccc1 [2-phenylethyl acetate]
42 wt. %	24 wt. %	27 wt. %	16 wt. %	39 wt. %	–	–	–	–	–	–	–	–	–	–	–	–	–	–	O=C(OCCc1ccccc1)C1CC1 [2-phenylethyl cyclopropanoate, 2-Phenylethyl Cyclopropanecarboxylate]
44 wt. %	23 wt. %	26 wt. %	10 wt. %	38 wt. %	–	–	–	–	–	–	–	–	–	–	–	–	–	–	CCC(=O)OC(C)c1ccccc1 (stereo not shown) [1-phenylethyl propionate]
39 wt. %	21 wt. %	13 wt. %	6 wt. %	38 wt. %	–	–	–	–	–	–	–	–	–	–	–	–	–	–	CCC(=O)OCCOc1ccccc1 [2-phenoxyethyl propionate]
34 wt. %	17 wt. %	18 wt. %	4 wt. %	25 wt. %	–	–	–	–	–	–	–	–	–	–	–	–	–	–	CCCCC(CC)C(=O)OCCc1ccccc1 (stereo not shown) [2-phenylethyl 2-ethylhexanoate]
30 wt. %	11 wt. %	2 wt. %	8 wt. %	30 wt. %	–	–	–	–	–	–	–	–	–	–	–	–	–	–	CC(O)C(=O)OCc1ccccc1 (stereo not shown) [benzyl lactate]
37 wt. %	20 wt. %	32 wt. %	10 wt. %	32 wt. %	(49,000)	345	–	–	(34,500)	359	(12,100)	326	–	–	(47,300)	317	(10,400)	317 nm	O=C(OCCc1ccccc1)C1CCCCC1 [2-phenylethyl cyclohexanoate, 2-Phenylethyl Cyclohexanecarboxylate]

Continued, compound first:

Compound	Solubility of MBC in the solvent [1]	Solubility of E-517 (Avobenzone) in the solvent [1]	Solubility of BEMT in the solvent [1]	Solubility of EHT in the solvent [1]	Solubility of E-567 (Oxybenzone) in the solvent [1]	ε of BEMT at λmax ([2]; first (longer wavelength) band)	λmax of BEMT ([2]; first (longer wavelength) band)	ε of BEMT at λmax [2, 3]	λmax of BEMT [2, 3]	ε of E-517 at λmax ([2]; first (longer wavelength) band)	λmax of E-517 ([2]; first (longer wavelength) band)	ε of E-567 at λmax ([2]; first (longer wavelength) band)	λmax of E-567 ([2]; first (longer wavelength) band)	ε of E-567 at λmax [2, 3]	λmax of E-567 [2, 3]	ε of EHT at λmax [2, 3]	λmax of EHT [2, 3]	ε of MBC at λmax [2, 3]	λmax of MBC [2, 3]
CCC(=O)OCCc1ccccc1 [2-phenylethyl propionate]	44 wt. %	25 wt. %	33 wt. %	12 wt. %	40 wt. %	–	–	–	–	–	–	–	–	–	–	–	–	–	–
CCCCCCCC(=O)OCCc1ccccc1 [2-phenylethyl octanoate]	36 wt. %	19 wt. %	23 wt. %	8 wt. %	27 wt. %	–	–	–	–	–	–	–	–	–	–	–	–	–	–
CCCC(=O)OCc1ccccc1 [benzyl butyrate]	–	24 wt. %	32 wt. %	10 wt. %	39 wt. %	–	–	–	–	–	–	–	–	–	–	–	–	–	–
CCCCC(=O)OCCc1ccccc1 [2-phenylethyl pentanoate, 2-Phenylethyl Pentanoate]	41 wt. %	22 wt. %	27 wt. %	10 wt. %	35 wt. %	(48,000)	345	(42,900)	312	(34,100)	359	(9,600)	327	(14,300)	287	(123,000)	312	(23,600)	298 nm
CCCCCCCCOC(=O)OCCCCCCCC [dioctyl carbonate, reference compound]	29 wt. %	13 wt. %	10 wt. %	7 wt. %	16 wt. %	–	–	–	–	–	–	–	–	–	–	–	–	–	–
CC(C)(C)C(=O)OCCc1ccccc1 [2-phenylethyl neopentanoate]	38 wt. %	19 wt. %	28 wt. %	5 wt. %	29 wt. %	–	–	–	–	–	–	–	–	–	–	–	–	–	–
CC(C)CCCCCCCOC(=O)C(C)(C)C [isodecyl neopentanoate, reference compound]	26 wt. %	8 wt. %	5 wt. %	3 wt. %	11 wt. %	–	–	–	–	–	–	–	–	–	–	–	–	–	–
CCCCCCCCOC(=O)OCc1ccccc1 [benzyl octyl carbonate]	35 wt. %	17 wt. %	18 wt. %	6 wt. %	27 wt. %	–	–	–	–	–	–	–	–	–	–	–	–	–	–
C12-15 alkyl benzoate [reference compound]	–	–	–	–	–	(43,800)	347	(40,800)	313	(33,400)	358	(9,260)	328	(9,310)	298	(117,000)	313	(22,000)	301 nm
